Reference: article PMC3894848 (Journal of medicinal chemistry, 2013)
One block for each compound: values may come before it.

Tests used:
BRD4 BrD1 = BRD4 BrD1 (Homo sapiens, UniProt O60885); test: Fluorescence anisotropy competition binding assay; details: for binding activity toward BRD4 BrD1 (in words): fluorescence anisotropy/polarization assay; for Lipophilic Ligand Efficiency: against BRD4-BrD1, LLE = pKi – ClogP
BRD4 BrD2 = BRD4 BrD2 (Homo sapiens, UniProt O60885); test: Fluorescence anisotropy competition binding assay, BRD4 BrD2

SMILES: Cc1cc(/N=N/c2cc(S(=O)(=O)O)c(C)cc2C)c(N)cc1O [Compound 1, (E)-5-((2-amino-4-hydroxy-5-methylphenyl)diazenyl)-2,4-dimethylbenzenesulfonic acid]
binding activity toward BRD4 BrD1 (in words) (BRD4 BrD1): modest activity

SMILES: Cc1cc(C)c(S(=O)(=O)O)cc1/N=N/c1cc(C)c(O)c(C)c1 [Compound 2, (E)-5-(3,5-dimethyl-4-hydroxyphenylazo)-2,4-dimethylbenzenesulfonic acid]
improvement in binding affinity to the BRD4 BrDs over MS120 (1) (BRD4 BrD1; vs MS120 (1), both BRD4 BrDs): 2–3 fold

SMILES: Cc1cc(/N=N/c2cccc(S(=O)(=O)Nc3ccccn3)c2)cc(C)c1O [Compound 3, (E)-3-((4-hydroxy-3,5-dimethylphenyl)diazenyl)-N-(pyridin-2-yl)benzenesulfonamide]
binding activity toward BRD4 BrD1 (in words) (BRD4 BrD1): retained the affinity of 2

SMILES: Cc1cc(/N=N/c2ccc(S(=O)(=O)Nc3ccccn3)cc2)cc(C)c1O [Compound 4, (E)-4-((4-hydroxy-3,5-dimethylphenyl)diazenyl)-N-(pyridin-2-yl)benzenesulfonamide]
Lipophilic Ligand Efficiency (BRD4 BrD1): 0.78 | improvement of affinity for the BRD4 BrD1 vs compound 3 (BRD4 BrD1; vs 3): over 6 fold

SMILES: Cc1cc(/N=N/c2ccc(S(=O)(=O)NCc3ccc(C(F)(F)F)cc3)cc2)cc(C)c1O [Compound 5, (E)-4-((4-hydroxy-3,5-dimethylphenyl)diazenyl)-N-(4-(trifluoromethyl)benzyl)benzenesul-fonamide]
binding activity toward BRD4 BrD1 (in words) (BRD4 BrD1): deteriorated drastically

SMILES: Cc1cc(/N=N/c2ccc(S(=O)(=O)N(C)c3ccccn3)cc2)cc(C)c1O [Compound 6, (E)-4-((4-hydroxy-3,5-dimethylphenyl)diazenyl)-N-methyl-N-(pyridin-2-yl)benzenesul-fonamide]
loss in activity/affinity toward BRD4 BrD1 vs MS435 (BRD4 BrD1; vs MS435): 9 fold

SMILES: Cc1cc(/N=N/c2ccc(S(=O)(=O)Nc3ccc(C(=O)O)cn3)cc2)cc(C)c1O [Compound 9, (E)-6-(4-((4-hydroxy-3,5-dimethylphenyl)diazenyl)phenylsulfonamido)nicotinic acid]
better affinity/potency toward BRD4 BrD1 than MS435 (BRD4 BrD1; vs MS435): about 3 fold

SMILES: COc1ccc(NS(=O)(=O)c2ccc(/N=N/c3cc(C)c(O)c(C)c3)cc2)nc1 [Compound 12, (E)-4-((4-hydroxy-3,5-dimethylphenyl)diazenyl)-N-(5-methoxypyridin-2-yl)benzenesulfon-amide]
improvement in binding affinity to the BRD4 BrD1 by nitrogen in the C ring (BRD4 BrD1; 12 vs. 13): 13 fold | selectivity for the BrD1 over the BrD2 of BRD4 (BRD4 BrD1; ratio of binding affinities): 4 fold | increase in binding affinity for the BRD4 BrD2 by nitrogen in the C ring (BRD4 BrD2; 12 vs. 13): 3 fold

SMILES: Cc1cc(/N=N/c2ccc(S(=O)(=O)Nc3ccccn3)cc2)c(N)c(C)c1O [Compound 28, (E)-4-((2-amino-4-hydroxy-3,5-dimethylphenyl)diazenyl)N-(pyridin-2-yl)benzenesulfon-amide]
Lipophilic Ligand Efficiency (BRD4 BrD1): 2.77 | reduction in binding affinity to the BRD4 BrD1 vs MS436 (BRD4 BrD1): about 2 fold

SMILES: COc1cc(/N=N/c2ccc(S(=O)(=O)Nc3ccccn3)cc2)c(N)cc1O [Compound 30, (E)-4-((2-amino-4-hydroxy-5-methoxyphenyl)diazenyl)-N-(pyridin-2-yl)benzenesulfon-amide]
reduction in binding affinity to the BRD4 BrD1 vs MS436 (BRD4 BrD1): 15 fold | reduction in binding affinity to the BRD4 BrD2 vs MS436 (BRD4 BrD2): 15 fold

SMILES: Cc1cc(/N=N/c2ccc(S(=O)(=O)Nc3ccccn3)cc2)nc(C)c1O [Compound 31, (E)-4-((5-hydroxy-4,6-dimethylpyridin-2-yl)diazenyl)-N-(pyridin-2-yl)benzenesulfonamide]
loss in activity/affinity toward BRD4 BrD1 vs MS435 (BRD4 BrD1; vs MS435): 3 fold

SMILES: Cc1nc(/N=N/c2ccc(S(=O)(=O)Nc3ccccn3)cc2)c(C)c(C)c1O [Compound 32, (E)-4-((5-hydroxy-3,4,6-trimethylpyridin-2-yl)diazenyl)-N-(pyridin-2-yl)benzenesulfon-amide]
loss in activity/affinity toward BRD4 BrD1 vs MS435 (BRD4 BrD1; vs MS435): 3 fold

More lines, now with the values ahead:

binding activity toward BRD4 BrD1 (in words) (BRD4 BrD1): deteriorated drastically
SMILES: Cc1cc(/N=N/c2ccc(S(=O)(=O)NCc3ccc(C(F)(F)F)cc3)cc2)ccc1O [Compound 35, (E)-4-((4-hydroxy-3-methylphenyl)diazenyl)-N-(4-(trifluoromethyl)benzyl)benzenesulfon-amide]

binding activity toward BRD4 BrD1 (in words) (BRD4 BrD1): deteriorated drastically
SMILES: Cc1cc(/N=N/c2ccc(S(=O)(=O)NCc3ccc(C(F)(F)F)cc3)cc2)c(N)cc1O [Compound 36, (E)-4-((2-amino-4-hydroxy-5-methylphenyl)diazenyl)-N-(4-(trifluoromethyl)benzyl)benzene sulfonamide]

binding activity toward BRD4 BrD1 (in words) (BRD4 BrD1): completely lost binding activity
SMILES: COc1c(C)cc(/N=N/c2ccc(S(=O)(=O)Nc3ccccn3)cc2)cc1C [Compound 37, (E)-4-((4-methoxy-3,5-dimethylphenyl)diazenyl)-N-(pyridin-2-yl)benzenesulfonamide]

binding activity toward BRD4 BrD1 (in words) (BRD4 BrD1): completely lost binding activity
SMILES: CC(=O)Nc1c(C)cc(/N=N/c2ccc(S(=O)(=O)Nc3ccccn3)cc2)cc1C [Compound 38, (E)-N-(2,6-dimethyl-4-((4-(N-(pyridin-2-yl)sulfamoyl)phenyl)diazenyl)phenyl)acetamide]

loss in activity/affinity toward BRD4 BrD1 vs MS435 (BRD4 BrD1; vs MS435): about 10 fold
SMILES: CC(C)c1cc(/N=N/c2ccc(S(=O)(=O)Nc3ccccn3)cc2)ccc1O [Compound 39, (E)-4-((4-hydroxy-3-isopropylphenyl)diazenyl)-N-(pyridin-2-yl)benzenesulfonamide]

loss in activity/affinity toward BRD4 BrD1 vs MS435 (BRD4 BrD1; vs MS435): about 10 fold
SMILES: CC(C)(C)c1cc(/N=N/c2ccc(S(=O)(=O)Nc3ccccn3)cc2)ccc1O [Compound 40, (E)-4-((3-(tert-butyl)-4-hydroxyphenyl)diazenyl)-N-(pyridin-2-yl)benzenesulfonamide]

binding activity toward BRD4 BrD1 (in words) (BRD4 BrD1): almost completely lost their activities
SMILES: CC(C)c1cc(/N=N/c2ccc(S(=O)(=O)Nc3ccccn3)cc2)cc(C(C)C)c1O [Compound 41, (E)-4-((4-hydroxy-3,5-diisopropylphenyl)diazenyl)-N-(pyridin-2-yl)benzenesulfonamide]

binding activity toward BRD4 BrD1 (in words) (BRD4 BrD1): almost completely lost their activities
SMILES: CC(C)(C)c1cc(/N=N/c2ccc(S(=O)(=O)Nc3ccccn3)cc2)cc(C(C)(C)C)c1O [Compound 42, (E)-4-((3,5-di-tert-butyl-4-hydroxyphenyl)diazenyl)-N-(pyridin-2-yl)benzenesulfonamide]

reduction in binding affinity to the BRD4 BrD1 vs MS436 (BRD4 BrD1): 10 fold | reduction in binding affinity to the BRD4 BrD2 vs MS436 (BRD4 BrD2): 3 fold
SMILES: Cc1cc(/N=N/c2cccc(S(=O)(=O)Nc3ccccn3)c2)c(N)cc1O [Compound 51, (E)-3-((2-amino-4-hydroxy-5-methylphenyl)diazenyl)-N-(pyridin-2-yl)benzenesulfonamide]
